According to US6849619B2, “Substituted pyridoindoles as serotonin agonists and antagonists” (Bristol-Myers Squibb Company, priority 2000, dated 2005):

SMILES	melting point [°C]
COc1ncc(C)cc1Nc1cc2c3c(c1)[C@@H]1CNCC[C@@H]1N3CCOC2 [Example 172, (7bR,11aS)-N-(2-Methoxy-5-methyl-3-pyridinyl)-1,2,7b,8,9,10,11,11a-octahydro-4H-[1,4]oxazepino[6,5,4-hi]pyrido[4,3-b]indole-6-amine]	122 to 124
CCOc1ncc(C)cc1Nc1cc2c3c(c1)[C@@H]1CNCC[C@@H]1N3CCOC2 [Example 173, (7bR,11aS)-N-(2-Ethoxy-5-methyl-3-pyridinyl)-1,2,7b,8,9,10,11,11a-octahydro-4H-[1,4]oxazepino[6,5,4-hi]pyrido[4,3b]indole-6-amine]	59 to 68
